Experiments:
[1] = tested on: Human endothelial cells (EA.hy 926); assay: DNA fragmentation in endothelial cells; type: cell-based; conditions: for % induction of DNA fragmentation: EA.hy926, 48 h
Experimental: Cell lines: Human endothelial cells (EA.Hy 926); test item: IS 181; treatment regimen: multiple additions (2)—48 hours; concentration range: 100 μg/ml to 5000 μg/ml (Duplicate wells); sera condition: medium containing 1% FBS. […] Cells were lysed and fragmented DNA was precipitated using PEG/NaCl solution. The fragmented DNA was incubated with 0.2 μg/ml of Hoechst 33258 dye and fluorescence was read at 360 ex/460 em. End point: Percentage induction of DNA fragmentation with respect to untreated. Positive control: anthralin. IS 181 led to induction of DNA fragmentation in Ea.hy.926 cells at all the concentrations tested. […] The overall effect of IS 181 on induction of DNA fragmentation with respect to untreated in Ea.hy.926 cells ranged from 15.09% to 64.15% (FIGS. 10A-10B and Table-10).

[2] = tested on: VEGF; assay: VEGF inhibition in keratinocytes (ELISA); type: cell-based, Human; design: inhibition of VEGF secretion as compared to untreated (basal) levels: dose or concentration left out as unconfirmed; conditions: HaCaT; for % Inhibition of VEGF wrt untreated (basal) levels / Conc. of VEGF: 24 h
Experimental: Cell lines: Human Keratinocytes (HaCaT); test item: IS181; treatment regimen: single addition—24 hours; concentration range: 0.1 μg/ml-100 μg/ml. […] Cells were serum-starved for another 24 hours (0% FBS). Cells were treated with IS181 for 24 hours. Supernatants were collected and stored at −20° C. till analysed. Levels of VEGF were analysed in supernatants by ELISA. Percent inhibition of VEGF secretion was calculated with reference to untreated levels. Positive control: curcumin; retinoic acid (at non-cytotoxic concentrations).

[3] = Cell viability of THP-1 (MTT); type: cell-based, Human; conditions: human, THP-1 monocytic cells, THP-1, 24 h, read-out: Cell viability (wrt Untreated)
Experimental: (§1) Cell lines: Human monocytic cell line (THP-1); test item: IS181: treatment regimen; single addition—24 hours; concentration range: 10 μg/ml-5000 μg/ml. A) Identification of non-cytotoxic concentrations: THP-1 cells were treated with IS181 for 24 hours; effect on cell viability was assessed by MTT assay; concentrations leading to >75% cell viability were selected for IL-23 assay. […] Positive control: curcumin. […] Since supernatants corresponding to 5 concentrations were to be tested for […], we also tested 1 mg/ml.

[4] = tested on: Human monocytic cell line (THP-1); assay: Cell viability of THP-1 (MTT); type: cell-based
Experimental: as §1

[5] = target: T1, JAK3 (Homo sapiens, UniProt P52333); assay: Biochemical kinase assay JAK3
T1 sequence (P52333 1-1124): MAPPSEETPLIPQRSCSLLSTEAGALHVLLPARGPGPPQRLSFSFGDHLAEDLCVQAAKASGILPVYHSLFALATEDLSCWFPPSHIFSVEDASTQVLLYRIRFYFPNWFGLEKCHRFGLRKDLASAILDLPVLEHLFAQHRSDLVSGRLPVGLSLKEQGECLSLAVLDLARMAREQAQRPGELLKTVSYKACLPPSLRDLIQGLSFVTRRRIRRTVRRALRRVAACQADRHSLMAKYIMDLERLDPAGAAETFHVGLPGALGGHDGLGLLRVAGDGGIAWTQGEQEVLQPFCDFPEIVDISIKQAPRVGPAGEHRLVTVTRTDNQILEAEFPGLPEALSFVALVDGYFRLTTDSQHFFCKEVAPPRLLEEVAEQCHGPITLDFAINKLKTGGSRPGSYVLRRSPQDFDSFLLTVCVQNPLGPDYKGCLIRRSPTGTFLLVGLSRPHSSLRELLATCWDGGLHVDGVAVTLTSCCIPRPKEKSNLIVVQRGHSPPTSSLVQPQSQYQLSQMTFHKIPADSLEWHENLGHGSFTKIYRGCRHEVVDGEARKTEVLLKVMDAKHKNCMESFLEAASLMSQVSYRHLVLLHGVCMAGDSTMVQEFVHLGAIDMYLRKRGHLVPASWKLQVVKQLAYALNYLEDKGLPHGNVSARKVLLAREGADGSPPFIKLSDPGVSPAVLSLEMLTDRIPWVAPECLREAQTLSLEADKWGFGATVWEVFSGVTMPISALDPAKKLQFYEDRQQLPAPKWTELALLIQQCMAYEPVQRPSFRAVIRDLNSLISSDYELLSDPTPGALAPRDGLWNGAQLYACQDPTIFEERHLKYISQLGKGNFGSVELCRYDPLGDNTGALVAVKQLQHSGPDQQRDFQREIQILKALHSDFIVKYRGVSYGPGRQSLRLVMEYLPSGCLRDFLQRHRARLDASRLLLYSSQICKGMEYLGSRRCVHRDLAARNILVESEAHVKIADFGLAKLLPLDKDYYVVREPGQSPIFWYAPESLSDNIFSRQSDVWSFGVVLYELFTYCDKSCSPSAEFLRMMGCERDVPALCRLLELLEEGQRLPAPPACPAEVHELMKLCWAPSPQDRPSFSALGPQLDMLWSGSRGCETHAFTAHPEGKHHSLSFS
Experimental: (§2) Test system: cell free assays; test items: IS181; concentrations tested: 1 ng/ml-5000 μg/ml; Kinases: a) Cell free assays: EGFR (ErbB1); FLT1 (VEGFR1); JAK1; JAK3 MAP2K1 (MEK1); PDGFRA (PDGFR alpha); PRKCA (PKC alpha); b) cell based assay: JAK-STAT.

[6] = target: PDGFRA (PDGFR alpha) (Homo sapiens, UniProt P16234); assay: Biochemical kinase assay PDGFRA; conditions: cell free, read-out: inhibition of PDGFRA (PDGRFR alpha)
Experimental: as §2

Sequence of PDGFRA (PDGFR alpha) (P16234 24-1089): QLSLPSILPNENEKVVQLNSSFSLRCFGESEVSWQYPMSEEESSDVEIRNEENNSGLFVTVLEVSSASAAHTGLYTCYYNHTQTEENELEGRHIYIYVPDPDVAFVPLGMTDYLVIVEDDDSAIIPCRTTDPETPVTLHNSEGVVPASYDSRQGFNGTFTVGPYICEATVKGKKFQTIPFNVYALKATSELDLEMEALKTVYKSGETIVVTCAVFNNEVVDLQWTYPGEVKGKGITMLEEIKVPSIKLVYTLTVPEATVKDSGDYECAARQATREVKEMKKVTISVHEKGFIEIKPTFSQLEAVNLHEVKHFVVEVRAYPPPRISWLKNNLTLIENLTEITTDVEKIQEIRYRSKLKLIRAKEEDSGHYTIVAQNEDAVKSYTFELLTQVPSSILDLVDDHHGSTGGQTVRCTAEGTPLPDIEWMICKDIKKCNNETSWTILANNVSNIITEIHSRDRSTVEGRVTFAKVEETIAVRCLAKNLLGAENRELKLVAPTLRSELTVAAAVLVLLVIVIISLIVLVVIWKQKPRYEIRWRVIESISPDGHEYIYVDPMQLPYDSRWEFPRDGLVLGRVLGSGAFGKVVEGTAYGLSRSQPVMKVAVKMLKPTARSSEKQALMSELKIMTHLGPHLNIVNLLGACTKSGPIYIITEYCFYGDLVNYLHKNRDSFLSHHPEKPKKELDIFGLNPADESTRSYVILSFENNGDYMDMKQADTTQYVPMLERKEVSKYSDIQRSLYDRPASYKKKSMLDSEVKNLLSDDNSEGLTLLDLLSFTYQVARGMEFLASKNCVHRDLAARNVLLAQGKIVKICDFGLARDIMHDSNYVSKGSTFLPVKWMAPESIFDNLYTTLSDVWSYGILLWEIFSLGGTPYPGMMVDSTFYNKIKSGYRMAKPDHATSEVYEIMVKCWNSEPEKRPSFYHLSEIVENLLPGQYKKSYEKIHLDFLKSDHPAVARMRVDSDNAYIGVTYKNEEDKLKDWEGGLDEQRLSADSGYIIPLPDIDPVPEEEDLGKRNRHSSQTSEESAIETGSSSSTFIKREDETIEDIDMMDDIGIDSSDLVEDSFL

- inhibition at 10 µg/mL ([5]; 10 μg/ml): 13%
- inhibition at 50 µg/mL ([5]; cell free, 50 μg/ml): 13%
- inhibition at 100 µg/mL ([5]; cell free, 100 μg/ml): -24%
- inhibition at 250 µg/mL ([5]; cell free, 250 μg/ml): -72%
- inhibition at 500 µg/mL ([5]; cell free, 500 μg/ml): -142%
- inhibition at 1000 µg/mL ([5]; cell free, 1000 μg/ml): -198%
- inhibition at 50 µg/mL ([6]; 50 μg/ml): 8%
- inhibition at 100 µg/mL ([6]; 100 μg/ml): -10%
- inhibition at 250 µg/mL ([6]; 250 μg/ml): -26%
- inhibition at 500 µg/mL ([6]; 500 μg/ml): -49%
- inhibition at 1000 µg/mL ([6]; 1000 μg/ml): -81%
- inhibition at 2000 µg/mL ([6]; 2000 μg/ml): -147%
Substance: H-WVQRVVEKFLK-OH [IS181, H-Trp-Val-Gln-Arg-Val-Val-Glu-Lys-Phe-Leu-Lys-OH]
- % induction of DNA fragmentation ([1]; 100 μg/ml): 15.09%
- % induction of DNA fragmentation ([1]; 500 μg/ml): 22.64%
- % induction of DNA fragmentation ([1]; 1000 μg/ml): 64.15%
- % induction of DNA fragmentation ([1]; 2000 μg/ml): 56.60%
- % induction of DNA fragmentation ([1]; 5000 μg/ml): 22.64%
- overall effect on induction of DNA fragmentation with respect to untreated ([1]; Ea.hy.926, 48 h, 100 μg/ml to 5000 μg/ml): 15.09% to 64.15%
- inhibition of VEGF secretion as compared to untreated (basal) levels [2]: 11.1%-17%
- % Inhibition of VEGF wrt untreated (basal) levels ([2]; 0.1 μg/ml): 17.0%
- Conc. of VEGF ([2]; 0.1 μg/ml): 2982.4 pg/mL
- % Inhibition of VEGF wrt untreated (basal) levels ([2]; 1 μg/ml): 12.6%
- Conc. of VEGF ([2]; 1 μg/ml): 3139.7 pg/mL
- % Inhibition of VEGF wrt untreated (basal) levels ([2]; 5 μg/ml): 11.1%
- Conc. of VEGF ([2]; 5 μg/ml): 3193.5 pg/mL
- % Inhibition of VEGF wrt untreated (basal) levels ([2]; 10 μg/ml): 12.9%
- Conc. of VEGF ([2]; 10 μg/ml): 3128.2 pg/mL
- % Inhibition of VEGF wrt untreated (basal) levels ([2]; 100 μg/ml): 0.7%
- Conc. of VEGF ([2]; 100 μg/ml): 3565.8 pg/mL
- viability at 24 h, 10 μg/ml ([3]; 10 μg/ml): 81.2%
- viability at 24 h, 50 μg/ml ([3]; 50 μg/ml): 84.2%
- viability at 24 h, 100 μg/ml ([3]; 100 μg/ml): 90.4%
- viability at 24 h, 500 μg/ml ([3]; 500 μg/ml): 88.5%
- viability at 24 h, 1 mg/ml ([3]; 1 mg/ml): 61.3%
- viability at 24 h, 5 mg/ml ([3]; 5 mg/ml): 15%
- cytotoxicity ([4]; THP-1, 10 μg/ml-500 μg/ml): 25%
- cytotoxicity ([4]; THP-1, 1 mg/ml): 38.7%
- cytotoxicity ([4]; THP-1, 5 mg/ml): 85%

From patent US10538561B2, “Peptide for treating inflammatory diseases” (priority 2015, dated 2020)
